From publication PMC10709440, “High-throughput ligand profile characterization in novel cell lines expressing seven heterologous insect olfactory receptors for the detection of volatile plant biomarkers” (Scientific Reports, 2023)
pEC50: −log10 of the molar value. Like-named read-outs stand apart in the source and are kept apart here.

What was measured:
Drosophila OR13a = target: T1, Drosophila OR13a (Drosophila melanogaster, UniProt Q9VXL0); assay: Calcium ion fluorescence (GCaMP6) assay, OR13a stable HEK293 cell line; type: cell-based; conditions: for OR13a response (VUAA1-normalized) at 1 μM / OR13a response (VUAA1-normalized) at 10 μM / OR13a response (VUAA1-normalized) at 100 μM: OR13a cell line; for OR13a response (VUAA1-normalized) at 1 μM: VOC concentration 1 μM; for OR13a response (VUAA1-normalized) at 10 μM: VOC concentration 10 μM; for OR13a response (VUAA1-normalized) at 100 μM: VOC concentration 100 μM
T1 construct: expressed in transfected cells
T1 sequence (Q9VXL0 1-418): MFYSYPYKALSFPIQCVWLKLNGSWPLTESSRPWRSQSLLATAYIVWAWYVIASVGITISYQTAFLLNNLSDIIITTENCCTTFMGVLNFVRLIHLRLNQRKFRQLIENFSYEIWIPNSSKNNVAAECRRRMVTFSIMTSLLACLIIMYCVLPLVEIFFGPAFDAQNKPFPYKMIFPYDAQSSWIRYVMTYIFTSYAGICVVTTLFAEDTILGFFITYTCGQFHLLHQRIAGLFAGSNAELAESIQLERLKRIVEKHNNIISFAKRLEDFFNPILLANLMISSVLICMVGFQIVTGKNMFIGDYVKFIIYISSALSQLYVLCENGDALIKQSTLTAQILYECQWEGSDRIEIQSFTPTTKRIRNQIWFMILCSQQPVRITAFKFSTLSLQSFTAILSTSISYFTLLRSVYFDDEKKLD
T1 sequence (Q9VNB5 1-486 partner): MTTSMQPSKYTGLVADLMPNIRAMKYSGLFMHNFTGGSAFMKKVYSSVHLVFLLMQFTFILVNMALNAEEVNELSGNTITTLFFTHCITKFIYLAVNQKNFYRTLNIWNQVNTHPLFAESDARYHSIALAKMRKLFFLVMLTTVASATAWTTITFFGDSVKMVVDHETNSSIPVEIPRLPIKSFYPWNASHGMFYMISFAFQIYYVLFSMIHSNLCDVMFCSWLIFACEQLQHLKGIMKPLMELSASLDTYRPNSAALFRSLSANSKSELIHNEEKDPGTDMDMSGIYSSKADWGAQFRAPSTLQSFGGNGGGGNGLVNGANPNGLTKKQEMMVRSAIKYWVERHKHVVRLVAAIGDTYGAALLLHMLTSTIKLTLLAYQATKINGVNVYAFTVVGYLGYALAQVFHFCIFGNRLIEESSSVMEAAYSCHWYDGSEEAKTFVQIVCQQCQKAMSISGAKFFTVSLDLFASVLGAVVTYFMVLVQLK
How it was run: (§1)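 Responses are VUAA1-normalized ΔF: each VOC-evoked calcium signal, (FMAX−F0)/F0 over 30 s after injection, divided by the same line's mean 50 µM VUAA1 response. Cells were doxycycline-induced HEK293 with GCaMP6 and the cognate Drosophila OR, in HEPES buffer pH 7.3; ligands tested 0.01–100 μM.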

Drosophila OR10a = target: T2, Drosophila OR10a (Drosophila melanogaster, UniProt Q9VYZ1); assay: Calcium ion fluorescence (GCaMP6) assay, OR10a stable HEK293 cell line; type: cell-based; conditions: for OR10a response (VUAA1-normalized) at 1 μM / OR10a response (VUAA1-normalized) at 10 μM / OR10a response (VUAA1-normalized) at 100 μM: OR10a cell line; for OR10a response (VUAA1-normalized) at 1 μM: VOC concentration 1 μM; for OR10a response (VUAA1-normalized) at 10 μM: VOC concentration 10 μM; for OR10a response (VUAA1-normalized) at 100 μM: VOC concentration 100 μM; for DF norm AVERAGE OR10a: threshold 0.05, below shown as 0; for pEC50: single-concentration estimate from 100 µM, plate 2019.12.05
T2 construct: expressed in transfected cells
T2 sequence (Q9VYZ1 1-406): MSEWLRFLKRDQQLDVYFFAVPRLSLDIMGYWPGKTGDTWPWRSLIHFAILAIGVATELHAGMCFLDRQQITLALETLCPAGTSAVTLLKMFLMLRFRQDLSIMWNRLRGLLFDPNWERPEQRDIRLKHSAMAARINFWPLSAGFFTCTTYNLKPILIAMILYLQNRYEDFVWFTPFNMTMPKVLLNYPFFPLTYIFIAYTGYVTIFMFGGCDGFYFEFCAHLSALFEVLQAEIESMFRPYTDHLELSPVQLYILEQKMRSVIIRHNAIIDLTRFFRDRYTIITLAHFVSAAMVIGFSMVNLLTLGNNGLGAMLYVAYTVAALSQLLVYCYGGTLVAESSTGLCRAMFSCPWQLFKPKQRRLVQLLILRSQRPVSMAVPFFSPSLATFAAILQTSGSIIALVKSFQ
T2 sequence (Q9VNB5 1-486 partner): T1 sequence (Q9VNB5 1-486 partner)
How it was run: as §1

[1] = HEK293, read-out: OR13a Average response (VUAA1-normalized), 1 μM VOC, 50 μM VUAA1 = 1, responses not exceeding 0.05 considered 0
[2] = HEK293, read-out: OR13a Average response (VUAA1-normalized), 10 μM VOC, 50 μM VUAA1 = 1, responses not exceeding 0.05 considered 0
[3] = HEK293, read-out: OR13a Average response (VUAA1-normalized), 100 μM VOC, 50 μM VUAA1 = 1, responses not exceeding 0.05 considered 0
[4] = HEK293, read-out: OR13a response (VUAA1-normalized response), VOC concentration 1 μM
[5] = HEK293, read-out: OR13a response (VUAA1-normalized response), VOC concentration 10 μM
[6] = HEK293, read-out: OR13a response (VUAA1-normalized response), VOC concentration 100 μM
[7] = concentration 1, normalized fluorescence change, values below 0.05 threshold given as 0
[8] = concentration 10, normalized fluorescence change, values below 0.05 threshold given as 0
[9] = concentration 100, normalized fluorescence change, values below 0.05 threshold given as 0
[10] = HEK293, 1 μM VOC, 50 μM VUAA1 = 1, responses not exceeding 0.05 considered 0, read-out: OR10a Average response (VUAA1-normalized)
[11] = HEK293, 10 μM VOC, 50 μM VUAA1 = 1, responses not exceeding 0.05 considered 0, read-out: OR10a Average response (VUAA1-normalized)
[12] = HEK293, 100 μM VOC, 50 μM VUAA1 = 1, responses not exceeding 0.05 considered 0, read-out: OR10a Average response (VUAA1-normalized)
[13] = HEK293, read-out: OR10a response (VUAA1-normalized response), VOC concentration 1 μM
[14] = HEK293, read-out: OR10a response (VUAA1-normalized response), VOC concentration 10 μM
[15] = HEK293, read-out: OR10a response (VUAA1-normalized response), VOC concentration 100 μM
[16] = ligand concentration 1 (unit not given), threshold 0.05, below shown as 0
[17] = ligand concentration 10 (unit not given), threshold 0.05, below shown as 0
[18] = ligand concentration 100 (unit not given), threshold 0.05, below shown as 0
[19] = ligand concentration 1 (unit not given)
[20] = ligand concentration 10 (unit not given)
[21] = ligand concentration 100 (unit not given)
[22] = 100 µM, OR10a clone G5, single plate 2019.12.05

Row | Compound | activation at 1 µM (Drosophila OR13a; [1]) [%] | activation at 10 µM (Drosophila OR13a; [2]) [%] | activation at 100 µM (Drosophila OR13a; [3]) [%] | activation at 1 µM (Drosophila OR13a; [4]) [%] | activation at 10 µM (Drosophila OR13a; [5]) [%] | activation at 100 µM (Drosophila OR13a; [6]) [%] | DF norm AVERAGE OR13a (Drosophila OR13a; [7]) | DF norm AVERAGE OR13a (Drosophila OR13a; [8]) | activation at 1 µM (Drosophila OR10a; [10]) [%] | activation at 10 µM (Drosophila OR10a; [11]) [%] | activation at 100 µM (Drosophila OR10a; [12]) [%] | activation at 1 µM (Drosophila OR10a; [13]) [%] | activation at 10 µM (Drosophila OR10a; [14]) [%] | activation at 100 µM (Drosophila OR10a; [15]) [%] | DF norm AVERAGE OR13a (Drosophila OR13a; [16]) | DF norm AVERAGE OR13a (Drosophila OR13a; [17]) | DF norm AVERAGE OR13a (Drosophila OR13a; [18]) | DF norm AVERAGE OR10a (Drosophila OR10a; [19]) | DF norm AVERAGE OR10a (Drosophila OR10a; [20]) | DF norm AVERAGE OR10a (Drosophila OR10a; [21]) | also measured
1 | Cc1ccc(C)c(C)c1 [1,2,4-trimethylbenzene] | 0 | 0 | 0 | 0 | 0 | 0 | 0 | 0 | 7 | 0 | 2.53 | 7 | 0 | 0 | – | – | – | – | – | – | DF norm AVERAGE OR13a (Drosophila OR13a; [9]): 0
2 | CCCCCC(C)O (stereo not drawn) [2-heptanol] | 4 | 0 | 8 | 0 | 0 | 8 | 0 | 0 | 3.76 | 7.54 | 0 | 0 | 7.54 | 0 | – | – | – | – | – | – | DF norm AVERAGE OR13a (Drosophila OR13a; [9]): 0.07697
3 | CC/C=C\CCOC(C)=O [Z-3-hexenyl acetate] | – | – | – | – | – | – | – | – | – | – | – | – | – | – | – | – | – | – | – | – | OR13a response (VUAA1-normalized) at 1 μM (Drosophila OR13a): 0.00; OR13a response (VUAA1-normalized) at 10 μM (Drosophila OR13a): 0.00; OR13a response (VUAA1-normalized) at 100 μM (Drosophila OR13a): 0.09; OR10a response (VUAA1-normalized) at 1 μM (Drosophila OR10a): 0.14; OR10a response (VUAA1-normalized) at 10 μM (Drosophila OR10a): 0.00; OR10a response (VUAA1-normalized) at 100 μM (Drosophila OR10a): 0.00
4 | CC(=O)c1ccccc1 [acetophenone] | 0 | 0 | 0 | 0 | 0 | 0 | – | – | 4 | 0 | 24 | 0 | 0 | 24 | 0 | 0 | 0 | 0 | 0 | 0.2367 | –
5 | CC(=O)OCC(C)C [isobutyl acetate] | 2 | 7 | 3.7 | 0 | 7 | 0 | – | – | – | – | – | 6.57 | 0 | 18 | 0 | 0.06695 | 0 | 0.06574 | 0 | 0.1821 | activation at 1 µM (Drosophila OR10a; HEK293, read-out: OR10a Average response (VUAA1-normalized), 1 μM VOC, 50 μM VUAA1 = 1, responses not exceeding 0.05 considered 0): 7%; activation at 10 µM (Drosophila OR10a; HEK293, read-out: OR10a Average response (VUAA1-normalized), 10 μM VOC, 50 μM VUAA1 = 1, responses not exceeding 0.05 considered 0): 5%; activation at 100 µM (Drosophila OR10a; HEK293, read-out: OR10a Average response (VUAA1-normalized), 100 μM VOC, 50 μM VUAA1 = 1, responses not exceeding 0.05 considered 0): 18%
6 | COC(=O)c1ccccc1 [methyl benzoate] | 0 | 0 | 6 | – | – | – | – | – | 31 | 64 | 67 | – | – | – | 0 | 0 | 0.06097 | 0.3063 | 0.6425 | 0.6719 | OR13a response (VUAA1-normalized) at 1 μM (Drosophila OR13a): 0.00; OR13a response (VUAA1-normalized) at 10 μM (Drosophila OR13a): 0.00; OR13a response (VUAA1-normalized) at 100 μM (Drosophila OR13a): 0.06; DF norm, all technical replicates (Drosophila OR10a; [22]): 0.8079; DF norm, outlier technical replicates removed (Drosophila OR10a; [22]): 0.8079; DF, outlier technical replicates removed (Drosophila OR10a; [22]): 1.408; DF, all technical replicates (Drosophila OR10a; 100 µM, OR10a clone G5, single plate 2019.12.05, xc+0.1%DMSO): 1.408; pEC50 (Drosophila OR10a; EC50, all technical replicates, OR10a clone G5): 4.62; pEC50 (Drosophila OR10a; EC50, outlier technical replicates removed, OR10a clone G5): 4.62; OR10a response (VUAA1-normalized) at 1 μM (Drosophila OR10a): 0.31; OR10a response (VUAA1-normalized) at 10 μM (Drosophila OR10a): 0.64; OR10a response (VUAA1-normalized) at 100 μM (Drosophila OR10a): 0.67
